Measurements reported in patent publication US20160243011A1, “Formulations Comprising Idebenone, N-Acetyl-S-Farnesyl-L-Cysteine and Ergothioneine and Uses Thereof” (ELIZABETH ARDEN, INC., priority 2012, published 2016).

Columns and labels:
[1] = system: IL-6; experiment: UVB induced IL-6 release in NHEKs (ELISA); assay type: cell-based; details: Homo sapiens, light or radiation study; Compound (0.1 μM); NHEK, UVB 25 mJ/cm^2, medium assayed 24 h later; read-out: IL-6 (% inhibited)
[2] = system: TNFα; experiment: UVB induced TNFα release in NHEKs (ELISA); assay type: cell-based; details: Homo sapiens, light or radiation study; Compound (0.1 μM); NHEK, UVB 25 mJ/cm^2, medium assayed 24 h later; read-out: TNFα (% inhibited)
[3] = system: IL-6; experiment: UVB induced IL-6 release in NHEKs (ELISA); assay type: cell-based, Human; details: for IL-6 (% inh) / EPF Score: 1 μM; for IL-6 (% inh) / inhibition at 1 µM: 6 hours pre-treatment, NHEK, UVB 25 mJ/cm2, 24 hours; for EPF Score: Example 8 (8A), IL-6; for inhibition at 1 µM: Homo sapiens, light or radiation study, read-out: IL-6 (% inh)
Procedure: (§1) In order to evaluate the impact of UV-induced inflammation in human skin, primary cell monolayer cultures were exposed to different types of UV radiation, i.e. UVB and UVA. Primary Human Dermal Fibroblasts (HDFs) were irradiated with UVA (350 nm) and Normal Human Epidermal Keratinocytes cells (NHEKs) with UVB (305 nm). HDFs were cultured in Dulbecco's Modified Eagle Medium (DMEM) basal medium (Life Technologies, Grand Island, N.Y.), supplemented with 10% v/v fetal bovine serum (FBS), (referred to as supplemented media) at 37° C. with 5% CO2 NHEKs were cultured in Epilife® basal medium (Life Technologies, Grand Island, N.Y.), supplemented with 60 μM calcium, 0.2% v/v bovine pituitary extract (BPE), 5 μg/ml bovine insulin, 0.18 μg/ml hydrocortisone, 5 μg/ml bovine transferrin, 5 μg/ml, 0.2 ng/ml human epidermal growth factor (referred to as supplemented media) at 37° C. with 5% CO2.
(§2) In order to avoid possible immunomodulating effects of these agents during compound treatments, cells were kept in DMEM or Epilife® basal medium without growth supplements (referred to as depleted media). Cells were plated at a concentration of 3.8×10^4 cells/well in supplemented media in 24-well plates. After cells were allowed to adhere (24 hours), media was changed to depleted media.
(§3) For “blend” testing, a formulation of idebenone, Arazine™ and ergothioneine (1:1:1 molar ratio) was prepared before mixing to medium. Six hours after pre-treatments, to induce a pro-inflammatory response, pre-treatment media was removed and replaced with phosphate-buffered saline (PBS).
(§4) Immediately after UV irradiation, cells were placed in fresh depleted medium for 24 hours. Cell cultures were examined for viability by the reduction of 3-(4,5-dimethylthiazol-2-yl)-5-(3-carboxymethoxyphenyl)-2-(4-sulfophenyl)-2H-tetrazolium (MTS assay; Promega, Madison, Wis.) to determine the percentage of viable cells after compound and UV irradiation. Media supernatants were harvested from non-irradiated and UV irradiated cells and assayed by enzyme-linked immunosorbent assays (ELISA) for the stimulated release of pro-inflammatory mediators. NHEKs were assayed for concentrations of Interleukin-6 (IL-6) and Tumor Necrosis Factor-alpha (TNF-alpha) using appropriate protein standards (BD Biosciences; San Jose, Calif.). HDFs were assayed for concentrations of IL-6 (BD Biosciences) or pro-Matrix Metalloproteinase-1 (pro-MMP-1) using appropriate protein standards (R&D Systems; Minneapolis, Minn.).
(§5) Control groups contained non-irradiated cells. Twenty four hours later, cell medium were assayed for the presence of pro-inflammatory mediators by ELISA.
(§6) To test these anti-oxidants for anti-inflammatory properties, primary Human Epidermal Keratinocytes (NHEKs) were cultured in the presence of each ingredient for 6 hours. Ingredients were then removed and cells were irradiated with 25 mJ/cm2 UVB. Media supernatants were collected after 24 hours and analyzed by ELISA for IL-6 and TNF-α. All ingredients were tested at 1 μM.

[4] = system: TNFα; experiment: UVB induced TNFα release in NHEKs (ELISA); assay type: cell-based, Human; details: for TNFα (% inh) / EPF Score: 1 μM; for TNFα (% inh) / inhibition at 1 µM: 6 hours pre-treatment, NHEK, UVB 25 mJ/cm2, 24 hours; for EPF Score: Example 8 (8B), TNFα; for inhibition at 1 µM: Homo sapiens, light or radiation study, read-out: TNFα (% inh)
Procedure: as §1, §2, §3, §4, §5, §6

[5] = Radical scavenging capacity (oxidation of ABTS by metmyoglobin); assay type: biochemical; details: for EPF Score: Example 3, scores: 10^−3 M=5, 10^−4 M=15, 10^−5 M=20; for Effective and oxidant conc: lowest effective concentration, OD 750 nm
Excerpt: This assay analyzed the overall antioxidant capacity of test ingredients for the ability to inhibit the oxidation of 2,2′-azino-bis(3-ethylbenzothiazoline-6-sulphonic acid) (ABTS). to ABTS.^+ by metmyoglobin. The testing involved the suppression of optical density (OD) at 750 nm to a degree that is proportional to an effective oxidation inhibition. The EPF scoring system was based on the lowest effective concentration as previously described by MacDaniel et al., 2005 and scores were assigned as follows: 10^−3 M=5; 10^−4 M=15; 10^−5 M=20.

[6] = system: Human LDL; experiment: LDL pro-oxidative system measuring primary oxidation by-products; assay type: biochemical; details: 100 μM; for Lipid hydrogen-peroxide % protection: CuSO4 oxidative system, 24 hours; for EPF Score: Example 4
Procedure: Human LDL was oxidized with or without 0.1 mM materials under a CuSO4 oxidative system in Ham's F-10 medium.

[7] = system: Rat liver microsomes; experiment: Microsome pro-oxidative system measuring secondary oxidation by-products (TBARS); assay type: biochemical; details: 100 μM; for Lipid MDA % protection: NADPH/ADP/Fe^3+ oxidative system, 24 hours; for EPF Score: Example 5
Procedure: Rat liver microsomes were oxidized with or without test ingredients at 0.1 mM using a NADPH/ADP/Fe^3+ oxidative system. Secondary oxidation products were quantified after 24 hours incubation by measuring MDA equivalents directly utilizing the production of Thiobarbituric acid-reactive substances (TBARS). Results are expressed as the change in optical density (OD) at 532 nm to a degree that is proportional to an effective oxidation inhibition based on 1,1,3,3-tetraethoxypropane as MDA-TBA production standard.

[8] = system: Primary Human Epidermal Keratinocytes (NHEKs); experiment: UVB induced DNA damage (thymine dimer formation); assay type: cell-based; details: 1 μM, 6 hours pre-treatment; UVB 200 mJ/cm^2
Procedure: Primary Human Epidermal Keratinocytes (NHEKs) were cultured in the presence of each test ingredient (1 μM) for 6 hours and later removed prior to UVB irradiation (200 mJ/cm^2). Cells were fixed after 1 hour and stained with anti-thymine dimer antibody. Positive rounded stained cells were counted using a fluorescence microscope.

[9] = system: EpiDerm™ inserts; experiment: UVB induced sun burn cell (SBC) formation using EpiDerm; assay type: cell-based; details: for SBC % inhibition / inhibition at 1000 µM: 1 mM topical, 6 hours, UVB 200 mJ/cm^2, fixed after 24 hours; for EPF Score: Example 7, 1 mM; for inhibition at 1000 µM: light or radiation study
Procedure: EpiDerm™ inserts (MatTek®) were topically treated in the presence of each test ingredient for 6 hours, after which they were removed, inserts were irradiated with 200 mJ/cm^2 UVB, and they fixed for H&E staining after 24 hours. The number of sun burn cells (SBCs) (white arrows) was counted. All compounds were tested at 1 mM.

[10] = system: IL-6; experiment: UVA induced IL-6 production in HDFs (ELISA); assay type: cell-based, Human; details: for IL-6 (% inh) / EPF Score: 1 μM; for IL-6 (% inh) / inhibition at 1 µM: 6 hours pre-treatment, HDF, UVA 12.5 J/cm^2, 24 hours; for EPF Score: Example 9 (9A), IL-6; for inhibition at 1 µM: Homo sapiens, light or radiation study, read-out: IL-6 (% inh)
Procedure: as §1, §2, §3, §4
(§7) To test these anti-oxidants for anti-inflammatory and anti-aging properties, primary Human Dermal Fibroblasts (HDFs) were cultured in the presence of each ingredient for 6 hours. […] Media supernatants were collected after 24 hours and analyzed by ELISA for IL-6 and pro-MMP-1. All ingredients were tested at 1 μM.

[11] = system: pro-MMP-1; experiment: UVA induced pro-MMP-1 production in HDFs (ELISA); assay type: cell-based, Human; details: for MMP-1 (% inh) / EPF Score: 1 μM; for MMP-1 (% inh) / inhibition at 1 µM: 6 hours pre-treatment, HDF, UVA 12.5 J/cm^2, 24 hours; for EPF Score: Example 9 (9B), MMP-1; for inhibition at 1 µM: Homo sapiens, light or radiation study, read-out: MMP-1 (% inh)
Procedure: as §1, §2, §3, §4, §7

[12] = Total Environmental Protection Factor (EPF) score; details: 180 point scoring system (20 points for each endpoint measured)
[13] = system: Primary Human Epidermal Keratinocytes (NHEKs); experiment: UVB induced DNA damage (thymine dimer formation); assay type: cell-based; details: Example 6; 1 μM

Compound	inhibition at 0.1 µM [1]	inhibition at 0.1 µM [2]	EPF Score [3]	EPF Score [4]	EPF Score [5]	Effective and oxidant conc [5]	Lipid hydrogen-peroxide % protection [6]	EPF Score [6]	Lipid MDA % protection [7]	EPF Score [7]	DNA damage % protection [8]	EPF Score [9]	EPF Score [10]	EPF Score [11]	Total EPF score (TTL) [12]	inhibition at 1 µM [3]	inhibition at 1 µM [4]	inhibition at 1000 µM [9]	inhibition at 1 µM [10]	EPF Score [13]	also measured
COC1=C(OC)C(=O)C(CCCCCCCCCCO)=C(C)C1=O [Idebenone]	15%	47%	–	–	–	–	–	–	–	–	–	–	–	–	–	–	–	–	–	–	–
O=C(O)CCCC[C@@H]1CCSS1 (racemic) [Lipoic acid]	–	–	14	14	5	>3 mM	5%	2	25%	7	13%	8	13	16	94	–	–	–	–	–	IL-6 (% inh) [3]: 46%; TNFα (% inh) [4]: 52%; SBC % inhibition [9]: 27%; IL-6 (% inh) [10]: 62%; MMP-1 (% inh) [11]: 80%
O=C1O[C@H]([C@@H](O)CO)C(O)=C1O [Vitamin C, ascorbic acid]	–	–	4	9	20	0.03 mM	0%	1	7%	2	16%	9	17	3	73	13%	36%	31%	81%	6	inhibition at 1 µM [11]: 13%
tocopherol [Vitamin E]	–	–	4	4	20	0.06 mM	56%	12	45%	12	9%	6	18	16	95	–	–	–	–	3	IL-6 (% inh) [3]: 12%; TNFα (% inh) [4]: 16%; SBC % inhibition [9]: 21%; IL-6 (% inh) [10]: 82%; MMP-1 (% inh) [11]: 80%
COc1cc(/C=C/C(=O)O)ccc1O [Ferulic acid]	–	–	16	14	20	0.03 mM	94%	20	63%	17	14%	18	13	7	130	54%	55%	64%	62%	5	inhibition at 1 µM [11]: 37%
CC(=O)N[C@@H](CSC/C=C(\C)CC/C=C(\C)CCC=C(C)C)C(=O)O [Arazine ™, N-acetyl-S-farnesyl-L-cysteine]	28%	33%	–	–	–	–	–	–	–	–	–	–	–	–	–	–	–	–	–	–	–
COC1=C(OC)C(=O)C(C/C=C(\C)CC/C=C(\C)CC/C=C(\C)CC/C=C(\C)CC/C=C(\C)CC/C=C(\C)CC/C=C(\C)CC/C=C(\C)CC/C=C(\C)CCC=C(C)C)=C(C)C1=O [Ubiquinone]	–	–	10	12	5	>3 mM	14%	5	62%	17	9%	13	17	5	87	34%	48%	46%	79%	3	inhibition at 1 µM [11]: 26%
C[N+](C)(C)C(Cc1c[nH]c(=S)[nH]1)C(=O)O (stereo not drawn) [Ergothioneine, 3-(2-sulfanylidene-1,3-dihydroimidazol-4-yl)-2-(trimethylazaniumyl)propanoate]	12%	35%	–	–	–	–	–	–	–	–	–	–	–	–	–	–	–	–	–	–	–
c1coc(CNc2ncnc3[nH]cnc23)c1 [Kinetin]	–	–	16	10	–	–	1%	1	0%	0	14%	18	15	2	–	–	–	62%	–	–	–
